Patent US20050238619A1, “Method for the delivery of sustained release agents” (priority 2004, published 2005)

Assays:
[1] = Fluorescein retention in RF ablated bovine liver, washed in PBS and photographed under UV light; assay type: in vitro ADME; settings: ablated bovine liver bivalved, agitated in 1 L PBS exchanged daily; photographed under UV light; FIG. 1
Source text: Bovine liver was ablated, injected multiple times with fluorescein. […] The PBS was exchanged daily for two weeks. At weekly intervals, the ablated tissue was photographed under ultraviolet (UV) light. […] This approach can be used to help train and assess people to use the technique.

[2] = Fluorescein retention by RF ablated bovine liver versus number of injections (fluorimeter); assay type: in vitro ADME; settings: total volume 0.5 mL, tissue washed over 10 minutes, FIG. 2
Method: Ablated bovine liver, prepared as in Example 1, was injected 3, 10, or 30 times with fluorescein (total volume of 0.5 mL). The tissue was extensively washed over 10 minutes; and the retained fluorescein was calculated as a percentage of the total injected fluorescein. To quantify the retained fluorescein, the washed tissue was homogenized, centrifuged and the supernatant assessed for fluorescein using a fluorimeter with excitation and emission filters of 485 nm and 525 nm, respectively.

[3] = Release of fluorescein from RF ablated bovine liver tissue; assay type: in vitro ADME; settings: FIG. 3
Source text: To determine the rate of fluorescein release, bovine liver was ablated with RF and injected with fluorescein. […] However, after one week of continued washing, the ablated tissue still contained greater than 50% of the original fluorescein.

[4] = Fluorescein retention in RF ablated subcutaneous Ras-6 tumors in vivo; parameters: species or system Balb/c female mice; settings: Ras-6 flank tumors, RFA, 50 μl fluorescein in 1 to 3 injections; FIG. 4
Method: Balb/c female mice were injected with 10^6 Ras-6 tumor cells in the flank. The Ras-6 tumor was derived by transfection of a p53-null BALB/c murine embryo fibroblast line with a mutant ras gene. Once the tumors reached 0.5-1 cm in size, the animals were placed under general anesthesia; and the tumors was ablated using a 0.7 cm multi-tined probe. RFA was accomplished by starting with 1-3 watts of power and increasing the power every 30 seconds. A special resistor circuit was placed in the circuit to avoid a low resistance default interrupt error built into the RFA generator. Following RFA, the tumors were injected with a total volume of 50 μl of fluorescein using 1 to 3 injections. At various intervals, the animals were sacrificed and the retained fluorescein assessed. FIG. 4 depicts the residual fluorescein after 1, 3, and 8 days. Consistent with the ex vivo studies, the amount of fluorescein decreases over this time interval; however, substantial fluorescein remains in the ablated tumor for ar least 8 days in vivo.

[5] = Fluorescein retention in RF ablated hepatic tumors in clinical studies, estimated from serial urine samples; assay type: in vivo, patients; settings: patient 1, after 12 days; 1 ml of 10% fluorescein (100 mg), 20 injections; estimated 2 L urine/day; FIG. 6
Method: Six patients with unresectable hepatic metastases or hapatocellular carcinoma were enrolled in the Internal Review Board approved protocol following the process of informed consent. Eligibility required that the patient receive RFA for therapeutic intent. RFA was performed using a RadioTherapeutics® device according to their specifications. Subsequently, 1 ml of 10% fluorescein was injected into the ablated tissue (20 different injections).
Because 98% of fluorescein is excreted in the urine, the amount of released and retained fluorescein could be estimated from serial urine sample. Serially, first morning void urine samples were collected and assessed for fluorescein. The retained fluorescein was calculated by subtracting the estimated excreted fluorescein (measured fluorescein (mg/mL)×estimated 2 L urine/day volume) from the total injected fluorescein (100 mg).

[6] = general statement used as the basis of the calculation; cited from earlier work

**Q.** For `O=C1OC2(c3ccc(O)cc3Oc3cc(O)ccc32)c2ccccc21` [fluorescein], which “time fluorescein was detected within the ablated tissue” value [1] is on record?
**A.** Its value is “at least two weeks”.

**Q.** And the “retained fluorescein as a percentage of the total injected fluorescein” value (“retained fluorescein as a percentage” below) ([2]; 3 injections)?
**A.** Its value is 41%.

**Q.** What about the “retained fluorescein as a percentage” value ([2]; 10 injections) of the same compound?
**A.** Its value is 49%.

**Q.** And the “retained fluorescein as a percentage” value ([2]; 30 injections)?
**A.** Its value is “about 65%”.

**Q.** What about the “course of released fluorescein” value ([3]; RF ablated bovine liver, continued washing) of the same compound?
**A.** Its value is “exponential decline”.

**Q.** What about the “fluorescein still contained in the ablated tissue, of the original fluorescein” value ([3]; after one week of continued washing) of the same compound?
**A.** The value was “greater than 50%”.

**Q.** What about the “time substantial fluorescein remains in the ablated tumor in vivo” value [4] of the same compound?
**A.** The value was ≥ 8 days.

**Q.** And the “calculated fluorescein retained in the ablated tumor” value [5]?
**A.** The value was “greater than 90%”.

**Q.** And the “fluorescein excreted in the urine” value [6]?
**A.** The value was 98%.
